What was measured:
[1] = tested on: normal NK cells expanded with K562-aAPC; experiment: drug sensitivity score (DSS) (DSS units); higher = more sensitive; extreme values may be limits of the assay; conditions: 72 h; IL-2 2.5 ng/mL
Protocol: (§1)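 Drug sensitivity and resistance testing on K562-aAPC-expanded normal NK cells: 5 concentrations (10-fold steps over a 10,000-fold range), 72 h at 37 °C, viability by CellTiter-Glo normalised to DMSO and benzethonium chloride controls; DSS from the fitted curve.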

[2] = tested on: normal primary NK cells, pool 3 (3 donors) (IL-2 2.5 ng/mL); experiment: as above; conditions: 72 h
KAI3 (IL-2 2.5 ng/mL) [3] = experiment: as above; conditions: 72 h
[4] = tested on: normal primary NK cells, pool 1 (3 donors) (IL-2 2.5 ng/mL); experiment: as above; conditions: 72 h
SNK-6 (IL-2 2.5 ng/mL) [5] = experiment: as above; conditions: 72 h
KHYG-1 (IL-2 2.5 ng/mL) [6] = experiment: as above; conditions: 72 h
[7] = tested on: normal primary NK cells, pool 2 (3 donors) (IL-2 2.5 ng/mL); experiment: as above; conditions: 72 h
NK-92 (IL-2 2.5 ng/mL) [8] = experiment: as above; conditions: 72 h
YT (IL-2 2.5 ng/mL) [9] = experiment: as above; conditions: 72 h
DERL-7 (IL-2 2.5 ng/mL) [10] = experiment: as above; conditions: 72 h
[11] = tested on: normal primary NK cells, pool 1 (3 donors), resting (IL-2 0 ng/mL); experiment: as above; conditions: 72 h
NKL (IL-2 2.5 ng/mL) [12] = experiment: as above; conditions: 72 h
NK-YS (IL-2 2.5 ng/mL) [13] = experiment: as above; conditions: 72 h
IMC-1 (IL-2 20 ng/mL) [14] = experiment: as above; conditions: 72 h
[15] = tested on: normal NK cells expanded with K562-aAPC; experiment: percent inhibition of viability; higher = more inhibition; conditions: 72 h, IL-2 2.5 ng/mL
Protocol: as §1

[16] = tested on: normal primary NK cells, pool 3 (3 donors) (IL-2 2.5 ng/mL); experiment: as above; conditions: 72 h
KAI3 (IL-2 2.5 ng/mL) [17] = experiment: as above; conditions: 72 h
[18] = tested on: normal primary NK cells, pool 1 (3 donors) (IL-2 2.5 ng/mL); experiment: as above; conditions: 72 h
SNK-6 (IL-2 2.5 ng/mL) [19] = experiment: as above; conditions: 72 h
KHYG-1 (IL-2 2.5 ng/mL) [20] = experiment: as above; conditions: 72 h
[21] = tested on: normal primary NK cells, pool 2 (3 donors) (IL-2 2.5 ng/mL); experiment: as above; conditions: 72 h
NK-92 (IL-2 2.5 ng/mL) [22] = experiment: as above; conditions: 72 h
YT (IL-2 2.5 ng/mL) [23] = experiment: as above; conditions: 72 h
DERL-7 (IL-2 2.5 ng/mL) [24] = experiment: as above; conditions: 72 h
[25] = tested on: normal primary NK cells, pool 1 (3 donors), resting (IL-2 0 ng/mL); experiment: as above; conditions: 72 h
NKL (IL-2 2.5 ng/mL) [26] = experiment: as above; conditions: 72 h
NK-YS (IL-2 2.5 ng/mL) [27] = experiment: as above; conditions: 72 h
IMC-1 (IL-2 20 ng/mL) [28] = experiment: as above; conditions: 72 h

O=NN(CCCl)C(=O)NCCCl [Carmustine] (max concentration tested 10000 nM)
Conditions | drug sensitivity score
DERL-7 (IL-2 2.5 ng/mL) [10] | 0
IMC-1 (IL-2 20 ng/mL) [14] | 0
KAI3 (IL-2 2.5 ng/mL) [3] | 0
KHYG-1 (IL-2 2.5 ng/mL) [6] | 0
NK-92 (IL-2 2.5 ng/mL) [8] | 1.02
NK-YS (IL-2 2.5 ng/mL) [13] | 0
NKL (IL-2 2.5 ng/mL) [12] | 1.26
SNK-6 (IL-2 2.5 ng/mL) [5] | 0
YT (IL-2 2.5 ng/mL) [9] | 0
[1] | 0.01
[2] | 0
[4] | 0
[7] | 0
[11] | 0

percent inhibition of viability [%]
Conditions | 1 nM | 10 nM | 100 nM | 1000 nM | 10000 nM
DERL-7 (IL-2 2.5 ng/mL) [24] | 5.36 | 1.21 | 3.36 | -4.79 | -4.35
IMC-1 (IL-2 20 ng/mL) [28] | -8.03 | -3.09 | -2.96 | 3.55 | 8.41
KAI3 (IL-2 2.5 ng/mL) [17] | 12.9 | 6.82 | 6.77 | 13.6 | 17.8
KHYG-1 (IL-2 2.5 ng/mL) [20] | -12.5 | -8.6 | -6.75 | 0.23 | 1.87
NK-92 (IL-2 2.5 ng/mL) [22] | -3.64 | -0.92 | 5.06 | 12.7 | 8.79
NK-YS (IL-2 2.5 ng/mL) [27] | -3.2 | -2.47 | -1.96 | 2.21 | 7.95
NKL (IL-2 2.5 ng/mL) [26] | 4.96 | 5.53 | 6.04 | 16.2 | 15.6
SNK-6 (IL-2 2.5 ng/mL) [19] | -5.81 | -6.45 | 1.48 | -7.81 | -8.51
YT (IL-2 2.5 ng/mL) [23] | -9.42 | -5.55 | -4.43 | -1.14 | 11
[15] | -3.33 | -8.02 | -3.23 | 5.49 | 10.2
[16] | -2.97 | 5.49 | 5.6 | 3.01 | 4.59
[18] | 4.94 | 8.26 | 6.5 | 0.38 | 7.88
[21] | -2.54 | 3.84 | 0.64 | 0.07 | 9.39
[25] | 9.22 | 19.6 | 23.1 | 5.64 | 15.2

COc1cc([C@@H]2c3cc4c(cc3[C@@H](O[C@@H]3O[C@@H]5CO[C@@H](c6cccs6)O[C@H]5[C@H](O)[C@H]3O)[C@H]3COC(=O)[C@H]23)OCO4)cc(OC)c1O [Teniposide] (max concentration tested 10000 nM)
Conditions | drug sensitivity score
DERL-7 (IL-2 2.5 ng/mL) [10] | 33.5
IMC-1 (IL-2 20 ng/mL) [14] | 32.6
KAI3 (IL-2 2.5 ng/mL) [3] | 29.9
KHYG-1 (IL-2 2.5 ng/mL) [6] | 30.9
NK-92 (IL-2 2.5 ng/mL) [8] | 25
NK-YS (IL-2 2.5 ng/mL) [13] | 29.3
NKL (IL-2 2.5 ng/mL) [12] | 36.2
SNK-6 (IL-2 2.5 ng/mL) [5] | 28.5
YT (IL-2 2.5 ng/mL) [9] | 22.1
[1] | 18.8
[2] | 10.1
[4] | 14
[7] | 11
[11] | 20.6

percent inhibition of viability [%]
Conditions | 1 nM | 10 nM | 100 nM | 1000 nM | 10000 nM
DERL-7 (IL-2 2.5 ng/mL) [24] | 5.54 | 34.5 | 94.9 | 80.3 | 99.3
IMC-1 (IL-2 20 ng/mL) [28] | -1.21 | 18.8 | 95.9 | 99.6 | 99
KAI3 (IL-2 2.5 ng/mL) [17] | -5.63 | 32.8 | 80.1 | 75.3 | 92.2
KHYG-1 (IL-2 2.5 ng/mL) [20] | 1.47 | 13.1 | 91.5 | 102 | 94.4
NK-92 (IL-2 2.5 ng/mL) [22] | -21.1 | 0.94 | 59.8 | 99.7 | 90.3
NK-YS (IL-2 2.5 ng/mL) [27] | 4.54 | 29.4 | 82.5 | 79.9 | 75.7
NKL (IL-2 2.5 ng/mL) [26] | 0.79 | 49.3 | 98.3 | 98.7 | 89.8
SNK-6 (IL-2 2.5 ng/mL) [19] | 5.23 | 16.8 | 78.2 | 95.8 | 94.7
YT (IL-2 2.5 ng/mL) [23] | 0.75 | -4.25 | 36.1 | 95.3 | 91.5
[15] | -1.49 | 7.42 | 51.3 | 59.8 | 99.4
[16] | -13.8 | -4.37 | 3.23 | 36.7 | 97
[18] | 2.23 | -5.23 | 11.2 | 66.3 | 96.6
[21] | -11.9 | -5.76 | 2.6 | 48.4 | 93.9
[25] | -23.6 | -9.41 | 27.9 | 90.8 | 91.2

CCc1c2c(nc3ccc(OC(=O)N4CCC(N5CCCCC5)CC4)cc13)-c1cc3c(c(=O)n1C2)COC(=O)[C@]3(O)CC [Irinotecan] (max concentration tested 10000 nM)
Conditions | drug sensitivity score
DERL-7 (IL-2 2.5 ng/mL) [10] | 13.6
IMC-1 (IL-2 20 ng/mL) [14] | 17.4
KAI3 (IL-2 2.5 ng/mL) [3] | 19.5
KHYG-1 (IL-2 2.5 ng/mL) [6] | 21.9
NK-92 (IL-2 2.5 ng/mL) [8] | 22.4
NK-YS (IL-2 2.5 ng/mL) [13] | 18.3
NKL (IL-2 2.5 ng/mL) [12] | 25.6
SNK-6 (IL-2 2.5 ng/mL) [5] | 18.7
YT (IL-2 2.5 ng/mL) [9] | 14.6
[1] | 8.77
[2] | 2.6
[4] | 0.5
[7] | 1.23
[11] | 0

percent inhibition of viability [%]
Conditions | 1 nM | 10 nM | 100 nM | 1000 nM | 10000 nM
DERL-7 (IL-2 2.5 ng/mL) [24] | -4.74 | 4.74 | 6.64 | 65.6 | 96.7
IMC-1 (IL-2 20 ng/mL) [28] | -2.65 | -6.08 | 0 | 95.8 | 99.6
KAI3 (IL-2 2.5 ng/mL) [17] | 16.1 | 10.6 | 29.7 | 88.8 | 84.8
KHYG-1 (IL-2 2.5 ng/mL) [20] | 0.37 | -3.33 | 25.7 | 104 | 109
NK-92 (IL-2 2.5 ng/mL) [22] | 0.95 | -2.29 | 30 | 104 | 109
NK-YS (IL-2 2.5 ng/mL) [27] | -7.5 | -7.35 | 7.27 | 94.2 | 98.5
NKL (IL-2 2.5 ng/mL) [26] | -2.62 | 5.5 | 62.6 | 105 | 108
SNK-6 (IL-2 2.5 ng/mL) [19] | 18.2 | -16.5 | 10.3 | 93.8 | 98.5
YT (IL-2 2.5 ng/mL) [23] | -5.37 | -7.93 | 2.4 | 78.1 | 108
[15] | -0.14 | -0.75 | 0.82 | 45.8 | 61
[16] | 3.5 | 8.16 | 16.4 | 10.7 | 17.2
[18] | -8.27 | 6.89 | -1.05 | 3.55 | 14.4
[21] | 1.46 | 0.89 | 3.4 | 10 | 20.8
[25] | 4.36 | 9.89 | 22.8 | 2.26 | -9.62

Reference: the supplement of paper PMC5908809
